Source: ChEMBL document CHEMBL5233266, “β-Carboline as a Privileged Scaffold for Multitarget Strategies in Alzheimer's Disease Therapy” (J Med Chem, 2021)
“And” between values parts separate entries of the source, which are not always exact repeats. Identical values can stand only once.

Key:
Acetylcholinesterase [1] = target: T1, Acetylcholinesterase (Homo sapiens, UniProt P22303); assay: Inhibition of AChE (unknown origin) using acetylthiocholine iodide as substrate incubated for 20 mins followed by substrate addition by Ellman's method
Cholinesterase [2] = target: T2, Cholinesterase (Homo sapiens, UniProt P06276); assay: Inhibition of BuChE (unknown origin) using acetylthiocholine iodide as substrate incubated for 20 mins followed by substrate addition by Ellman's method
[3] = target: GABA-A receptor; anion channel; assay: Inhibition of GABAA receptor (unknown origin); type: protein-complex assay, Homo sapiens
Acetylcholinesterase [4] = target: T1, Acetylcholinesterase; assay: Inhibition of AChE (unknown origin) incubated for 40 mins by Ellman's method
Acetylcholinesterase [5] = target: T1, Acetylcholinesterase; assay: Inhibition of AChE (unknown origin)
Cholinesterase [6] = target: T2, Cholinesterase; assay: Inhibition of BuChE (unknown origin)
[7] = target: T3, Gamma-aminobutyric acid receptor subunit alpha-1 (Homo sapiens, UniProt P14867); assay: Binding affinity to human recombinant GABAA alpha1 receptor assessed as inhibition constant incubated for 1 hrs by liquid scintillation counting analysis
T3 sequence (P14867 whole entry): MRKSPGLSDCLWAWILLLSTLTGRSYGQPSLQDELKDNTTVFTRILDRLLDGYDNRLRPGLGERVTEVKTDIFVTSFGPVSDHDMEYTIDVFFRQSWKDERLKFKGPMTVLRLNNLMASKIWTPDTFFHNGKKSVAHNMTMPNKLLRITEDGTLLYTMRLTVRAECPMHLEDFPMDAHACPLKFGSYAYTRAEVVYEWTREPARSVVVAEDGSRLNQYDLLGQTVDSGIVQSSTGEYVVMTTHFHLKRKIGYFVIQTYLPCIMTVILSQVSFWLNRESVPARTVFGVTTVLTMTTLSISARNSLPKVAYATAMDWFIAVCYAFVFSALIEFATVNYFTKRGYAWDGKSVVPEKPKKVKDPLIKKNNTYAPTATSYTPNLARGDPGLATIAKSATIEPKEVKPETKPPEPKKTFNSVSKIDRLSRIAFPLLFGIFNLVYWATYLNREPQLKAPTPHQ

[8] = target: T4, Gamma-aminobutyric acid receptor subunit alpha-3 (Homo sapiens, UniProt P34903); assay: Binding affinity to human recombinant GABAA alpha3 receptor assessed as inhibition constant incubated for 1 hrs by liquid scintillation counting analysis
T4 sequence (P34903 whole entry): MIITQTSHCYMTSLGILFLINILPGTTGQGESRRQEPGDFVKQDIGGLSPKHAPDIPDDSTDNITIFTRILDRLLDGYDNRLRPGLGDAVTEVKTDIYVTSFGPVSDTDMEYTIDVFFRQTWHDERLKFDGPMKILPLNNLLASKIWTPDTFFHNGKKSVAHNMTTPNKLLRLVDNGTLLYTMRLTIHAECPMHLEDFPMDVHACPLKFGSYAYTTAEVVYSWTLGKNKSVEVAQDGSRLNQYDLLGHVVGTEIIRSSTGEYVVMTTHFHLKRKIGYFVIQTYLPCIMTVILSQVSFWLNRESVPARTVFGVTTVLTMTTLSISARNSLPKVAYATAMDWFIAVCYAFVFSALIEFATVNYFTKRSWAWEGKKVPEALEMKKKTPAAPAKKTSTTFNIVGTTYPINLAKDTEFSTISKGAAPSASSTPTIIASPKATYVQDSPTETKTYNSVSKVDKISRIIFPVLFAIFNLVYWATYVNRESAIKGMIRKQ

[9] = target: Gamma-aminobutyric acid receptor subunit alpha-4 (Homo sapiens, UniProt P48169); assay: Binding affinity to human recombinant GABAA alpha4 receptor assessed as inhibition constant incubated for 1 hrs by liquid scintillation counting analysis
[10] = target: T5, Gamma-aminobutyric acid receptor subunit alpha-5 (Homo sapiens, UniProt P31644); assay: Binding affinity to human recombinant GABAA alpha5 receptor assessed as inhibition constant incubated for 1 hrs by liquid scintillation counting analysis
T5 sequence (P31644 whole entry): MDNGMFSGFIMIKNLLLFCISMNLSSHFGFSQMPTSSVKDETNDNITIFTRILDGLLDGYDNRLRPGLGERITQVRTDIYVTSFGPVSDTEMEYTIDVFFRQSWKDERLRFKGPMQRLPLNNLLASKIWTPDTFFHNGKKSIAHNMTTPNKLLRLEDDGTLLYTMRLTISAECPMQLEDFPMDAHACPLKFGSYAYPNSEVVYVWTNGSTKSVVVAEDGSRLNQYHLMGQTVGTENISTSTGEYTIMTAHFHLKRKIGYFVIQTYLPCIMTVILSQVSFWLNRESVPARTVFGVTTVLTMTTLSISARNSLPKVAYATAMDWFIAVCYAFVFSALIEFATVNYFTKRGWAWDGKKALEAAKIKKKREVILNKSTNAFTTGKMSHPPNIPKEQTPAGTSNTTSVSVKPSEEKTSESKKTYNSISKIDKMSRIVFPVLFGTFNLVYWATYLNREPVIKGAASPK

[11] = target: Gamma-aminobutyric acid receptor subunit alpha-6 (Homo sapiens, UniProt Q16445); assay: Binding affinity to human recombinant GABAA alpha6 receptor assessed as inhibition constant incubated for 1 hrs by liquid scintillation counting analysis
[12] = target: 5-hydroxytryptamine receptor 2B (Rattus norvegicus, UniProt P30994); assay: Displacement of [3H]-ketanserin from rat 5-HT2B expressed in mouse NIH/3T3 cells assessed as inhibition constant by Cheng-Prusoff equation analysis; type: cell-based
[13] = target: 5-hydroxytryptamine receptor 2B (Homo sapiens, UniProt P41595); assay: Binding affinity to 5-HT2B (unknown origin) assessed as equilibrium binding constant
5-hydroxytryptamine receptor 2B (Homo sapiens, UniProt P41595), sequence (P41595 whole entry): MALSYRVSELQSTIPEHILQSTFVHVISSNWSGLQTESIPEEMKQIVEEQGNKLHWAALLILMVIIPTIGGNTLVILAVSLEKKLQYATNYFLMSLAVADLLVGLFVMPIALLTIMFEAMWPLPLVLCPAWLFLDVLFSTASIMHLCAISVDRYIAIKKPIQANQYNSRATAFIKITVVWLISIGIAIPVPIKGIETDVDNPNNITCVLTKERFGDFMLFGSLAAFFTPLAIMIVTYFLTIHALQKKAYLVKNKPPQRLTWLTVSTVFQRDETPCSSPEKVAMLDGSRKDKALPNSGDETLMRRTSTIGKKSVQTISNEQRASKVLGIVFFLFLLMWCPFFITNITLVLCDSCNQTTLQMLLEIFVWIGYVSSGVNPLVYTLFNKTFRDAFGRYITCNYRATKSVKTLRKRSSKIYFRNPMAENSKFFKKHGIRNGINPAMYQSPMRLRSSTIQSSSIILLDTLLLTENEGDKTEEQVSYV

T2 sequence (P06276 whole entry): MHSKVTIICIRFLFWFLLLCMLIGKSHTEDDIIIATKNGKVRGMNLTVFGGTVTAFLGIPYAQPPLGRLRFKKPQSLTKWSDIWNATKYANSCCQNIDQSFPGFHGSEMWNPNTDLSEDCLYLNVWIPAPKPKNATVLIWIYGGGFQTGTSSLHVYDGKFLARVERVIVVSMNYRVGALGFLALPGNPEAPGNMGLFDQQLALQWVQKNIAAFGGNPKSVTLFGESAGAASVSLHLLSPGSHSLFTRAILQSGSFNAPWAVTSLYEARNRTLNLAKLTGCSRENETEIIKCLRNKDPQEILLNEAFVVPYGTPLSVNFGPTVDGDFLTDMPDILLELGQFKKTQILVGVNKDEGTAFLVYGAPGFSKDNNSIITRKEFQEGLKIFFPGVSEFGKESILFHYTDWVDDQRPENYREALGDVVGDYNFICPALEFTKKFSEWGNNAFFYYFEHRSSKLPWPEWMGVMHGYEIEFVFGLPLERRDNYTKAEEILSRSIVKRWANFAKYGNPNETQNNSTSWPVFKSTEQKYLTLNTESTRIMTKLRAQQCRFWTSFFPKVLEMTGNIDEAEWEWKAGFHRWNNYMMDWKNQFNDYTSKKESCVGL
5-hydroxytryptamine receptor 2B (Rattus norvegicus, UniProt P30994), sequence (P30994 whole entry): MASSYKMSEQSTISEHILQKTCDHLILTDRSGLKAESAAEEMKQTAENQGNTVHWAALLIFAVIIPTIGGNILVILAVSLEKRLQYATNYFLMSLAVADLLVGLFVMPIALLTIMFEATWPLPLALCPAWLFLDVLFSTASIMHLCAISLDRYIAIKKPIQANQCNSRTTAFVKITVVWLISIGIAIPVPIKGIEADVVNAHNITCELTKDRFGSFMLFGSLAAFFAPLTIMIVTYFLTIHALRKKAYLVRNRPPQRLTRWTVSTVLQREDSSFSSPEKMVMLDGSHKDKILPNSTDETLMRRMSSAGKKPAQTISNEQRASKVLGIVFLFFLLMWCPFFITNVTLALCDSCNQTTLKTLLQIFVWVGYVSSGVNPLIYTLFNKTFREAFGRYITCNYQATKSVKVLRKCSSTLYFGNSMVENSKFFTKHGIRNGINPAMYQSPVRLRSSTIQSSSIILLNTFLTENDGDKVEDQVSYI
T1 sequence (P22303 whole entry): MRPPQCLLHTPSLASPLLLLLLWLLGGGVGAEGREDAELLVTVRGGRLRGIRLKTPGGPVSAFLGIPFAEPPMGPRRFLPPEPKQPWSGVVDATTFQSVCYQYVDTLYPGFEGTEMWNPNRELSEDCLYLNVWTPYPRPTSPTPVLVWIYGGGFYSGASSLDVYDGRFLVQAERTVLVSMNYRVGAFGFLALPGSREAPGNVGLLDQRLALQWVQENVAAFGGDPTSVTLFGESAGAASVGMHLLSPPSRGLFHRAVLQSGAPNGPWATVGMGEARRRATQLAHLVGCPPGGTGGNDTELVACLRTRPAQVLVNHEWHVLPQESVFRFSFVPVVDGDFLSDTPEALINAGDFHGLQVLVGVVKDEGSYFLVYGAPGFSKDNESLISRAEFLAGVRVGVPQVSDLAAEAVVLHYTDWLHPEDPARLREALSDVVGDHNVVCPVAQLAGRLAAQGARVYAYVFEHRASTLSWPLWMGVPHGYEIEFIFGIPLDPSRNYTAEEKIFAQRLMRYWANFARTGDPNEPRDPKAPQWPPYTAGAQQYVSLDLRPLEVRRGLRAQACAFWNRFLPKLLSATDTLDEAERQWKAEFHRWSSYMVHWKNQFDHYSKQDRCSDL
Gamma-aminobutyric acid receptor subunit alpha-4, sequence (P48169 whole entry): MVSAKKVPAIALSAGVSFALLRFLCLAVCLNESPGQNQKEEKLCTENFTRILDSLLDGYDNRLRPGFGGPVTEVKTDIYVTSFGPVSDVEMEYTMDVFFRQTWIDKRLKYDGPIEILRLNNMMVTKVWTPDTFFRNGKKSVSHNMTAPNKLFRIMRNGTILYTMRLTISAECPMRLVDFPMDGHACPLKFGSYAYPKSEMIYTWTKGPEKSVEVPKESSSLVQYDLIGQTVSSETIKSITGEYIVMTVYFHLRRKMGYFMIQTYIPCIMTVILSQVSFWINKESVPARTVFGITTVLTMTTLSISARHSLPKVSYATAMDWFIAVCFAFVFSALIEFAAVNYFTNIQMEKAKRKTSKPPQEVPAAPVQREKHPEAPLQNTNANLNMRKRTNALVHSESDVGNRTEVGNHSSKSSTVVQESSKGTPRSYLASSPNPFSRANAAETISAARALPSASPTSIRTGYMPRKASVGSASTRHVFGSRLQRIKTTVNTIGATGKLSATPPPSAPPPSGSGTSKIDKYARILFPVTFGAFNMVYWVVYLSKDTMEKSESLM
Gamma-aminobutyric acid receptor subunit alpha-6, sequence (Q16445 whole entry): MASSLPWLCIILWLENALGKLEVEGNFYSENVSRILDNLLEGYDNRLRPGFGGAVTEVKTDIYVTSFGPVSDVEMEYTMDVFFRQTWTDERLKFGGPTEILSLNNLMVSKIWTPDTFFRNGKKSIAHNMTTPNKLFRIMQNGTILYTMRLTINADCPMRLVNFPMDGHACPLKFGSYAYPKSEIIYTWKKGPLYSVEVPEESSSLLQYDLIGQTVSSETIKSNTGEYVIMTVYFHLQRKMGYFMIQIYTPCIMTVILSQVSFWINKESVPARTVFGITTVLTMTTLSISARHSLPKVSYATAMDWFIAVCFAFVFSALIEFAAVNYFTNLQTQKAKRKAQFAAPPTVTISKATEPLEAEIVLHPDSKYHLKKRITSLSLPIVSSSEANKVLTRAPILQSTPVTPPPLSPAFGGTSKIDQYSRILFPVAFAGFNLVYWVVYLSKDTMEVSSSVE

SMILES: C=C[C@H]1C[N+]2=C(C[C@@H]1/C(=C\OC)C(=O)OC)c1[nH]c3cccc(OC)c3c1CC2
- IC50 (Acetylcholinesterase [1]): 4100 nM

SMILES: c1ccc2c(c1)CN1CCc3c([nH]c4ccccc34)C1=N2
- IC50 (Acetylcholinesterase [1]): 3400 nM
- IC50 (Cholinesterase [2]): 500 nM

SMILES: O=[N+]([O-])c1ccc2[nH]c3cnc4c5ccccc5[nH]c4c3c2c1
- IC50 [3]: 4 nM

SMILES: COC(=O)C1=CO[C@@H](C)[C@H]2C[n+]3ccc4c([nH]c5ccccc54)c3C[C@H]12
- IC50 (Acetylcholinesterase [1]): 780 nM

SMILES: Brc1ccc2[nH]c3cnc4c5ccccc5[nH]c4c3c2c1
- IC50 [3]: 4 nM

SMILES: Cn1c2c(c3ccccc31)CC[N+](c1ccc(Br)cc1)=C2
- IC50 (Acetylcholinesterase [4]): 1500 nM

SMILES: O=C(CN1CCCCC1)Nc1ccc2nc3c4[nH]c5ccccc5c4ccn3c(=O)c2c1
- IC50 (Acetylcholinesterase [1]): 10 nM
- IC50 (Cholinesterase [2]): 5400 nM

SMILES: Cn1c2ccccc2c2cc[n+](-c3ccc(I)cc3)cc21
- IC50 (Acetylcholinesterase [5]): 240 nM and 300 nM
- IC50 (Cholinesterase [6]): 32000 nM and 116000 nM
- IC50 (Acetylcholinesterase [4]): 240 nM

SMILES: C#Cc1ccc2[nH]c3cnc(C(=O)OC(C)(C)C)cc3c2c1
- Ki [7]: 1 nM
- Ki [8]: 100 nM
- Ki [9]: 2000 nM
- Ki [10]: 210 nM
- Ki [11]: 2000 nM

SMILES: COc1ccc(CC2NCCc3c2[nH]c2cccc(I)c32)cc1OC (centres undefined)
- Ki [12]: 0.1 nM
- Kb [13]: < 0.3 nM

SMILES: COCc1c(C(=O)OC(C)C)ncc2[nH]c3ccc4nccnc4c3c12
- IC50 [3]: 0.8 nM

SMILES: COc1ccc(CC2NCCc3c2[nH]c2c(F)cc(F)cc32)cc1OC (centres undefined)
- Ki [12]: 0.2 nM
- Kb [13]: < 0.3 nM

SMILES: c1ccc2c(CC3NCCc4c3[nH]c3ccccc43)cccc2c1 (centres undefined)
- Ki [12]: 0.4 nM
- Kb [13]: 0.4 nM

SMILES: c1ccc(COc2ccc3c(c2)[nH]c2c3ncc3[nH]c4ccccc4c32)cc1
- IC50 [3]: > 4000 nM

SMILES: COc1ccc(CC2NCCc3c2[nH]c2ccc(C)cc32)c(Cl)c1OC (centres undefined)
- Ki [12]: 0.2 nM
- Kb [13]: < 0.3 nM

SMILES: Cn1c2c(c3ccccc31)CC[N+](c1ccc(I)cc1)=C2
- IC50 (Acetylcholinesterase [4]): 1500 nM

SMILES: COCc1c(C(=O)OC(C)C)ncc2[nH]c3ccc4nc5c(nc4c3c12)CCCC5
- IC50 [3]: 0.8 nM

SMILES: COc1ccc(CC2NCCc3c2[nH]c2ccc(C)cc32)c(Br)c1OC (centres undefined)
- Ki [12]: 0.2 nM
- Kb [13]: < 0.3 nM

SMILES: Cc1cc2cc3n(c(=O)c2cn1)CCc1c-3[nH]c2ccccc12
- IC50 (Acetylcholinesterase [1]): 22000 nM
- IC50 (Cholinesterase [2]): 1000 nM

SMILES: O=C1c2ccccc2-[n+]2ccc3c([nH]c4ccccc43)c21 [FASCAPLYSIN]
- IC50 (Acetylcholinesterase [1]): 1500 nM
- IC50 (Cholinesterase [2]): 90000 nM

SMILES: COc1ccc(CC2NCCc3c2[nH]c2cccc(C)c32)cc1OC (centres undefined)
- Ki [12]: 0.1 nM
- Kb [13]: 0.08 nM

SMILES: O=C(CCN1CCCC1)Nc1ccc2c(c1)CN1CCc3c([nH]c4ccccc34)C1=N2
- IC50 (Acetylcholinesterase [1]): 29 nM
- IC50 (Cholinesterase [2]): 840 nM
